Measured values from patent publication US9315494B2, “Alkyl-amide-substituted pyridyl compounds useful as modulators of IL-12, IL-23 and/or IFNα responses” (Bristol-Myers Squibb Company, priority 2012, dated 2016).

What was measured:
[1] = system: IFNα-stimulated STAT-dependent luciferase reporter in Kit225 T cells; experiment: Kit225 T cell assay, IFNα stimulated STAT-dependent luciferase reporter; type: cell-based, human; details: Kit225 T cells, 200 U/mL human recombinant IFNα, 5-6 hours, luciferase; read-out: IFNα (Kit225 T Cell Inhibition Data)
Description: (§1) Kit225 T cells with a stably-integrated STAT-dependent luciferase reporter were plated in RPMI (Gibco) containing 10% heat-inactivated FBS (Gibco) and 100 U/mL PenStrep (Gibco). The cells were then stimulated with either 20 ng/mL human recombinant IL-23 or 200 U/mL human recombinant IFNα (PBL InterferonSource) for 5-6 hours. Luciferase expression was measured using the STEADY-GLO® Luciferase Assay System (Promega) according to the manufacturer's instructions.

[2] = system: IL-23-stimulated STAT-dependent luciferase reporter in Kit225 T cells; experiment: Kit225 T cell assay, IL-23 stimulated STAT-dependent luciferase reporter; type: cell-based, human; details: Kit225 T cells, 20 ng/mL human recombinant IL-23, 5-6 hours, luciferase; read-out: IL23 (Kit225 T Cell Inhibition Data)
Description: as §1

Row | Compound | IC50 [1] [nM] | IC50 [2] [nM]
1 | CNC(=O)c1cnc(Nc2ccn(C(C)C)n2)cc1Nc1ccccc1S(C)(=O)=O [Example 442] | 130 | 450
2 | CCNC(=O)c1cnc(Nc2ccc(F)cn2)cc1Nc1ccccc1C(N)=O [Example 295] | 3290 | 7300
3 | CNC(=O)c1cnc(Nc2ccc(F)cn2)cc1Nc1ccc(OC)cc1 [Example 195] | 3520 | 3130
4 | CNC(=O)c1cnc(Nc2cc(C(C)(C)C)ccn2)cc1Nc1ccccc1S(C)(=O)=O [Example 18] | 400 | 1120
5 | CNC(=O)c1cnc(Nc2ccc(-n3cc(F)ccc3=O)cn2)cc1Nc1ccc(F)cc1OC [Example 126] | 700 | 830
6 | CNC(=O)c1cnc(Nc2cc(C)c(C#N)c(C)n2)cc1Nc1ccc(F)cc1OC [Example 163] | 230 | 306
7 | CNC(=O)c1ccc(Nc2cc(Nc3ccc(Cl)cc3OC)c(C(=O)NC)cn2)nc1 [Example 260] | 1760 | 2400
8 | CNC(=O)c1cnc(Nc2cc(C#N)ccn2)cc1Nc1ccc(F)cc1OCF [Example 166] | 90 | 157
9 | CNC(=O)c1cnc(Nc2ccc(F)cn2)cc1Nc1ccccc1SC [Example 65] | 370 | 481
10 | CNC(=O)c1cnc(Nc2ccc(-n3ccccc3=O)cn2)cc1Nc1ccc(Cl)cc1OC [Example 98] | 280 | 480
11 | CNC(=O)c1cnc(Nc2cc(C)c(F)cn2)cc1Nc1cccc(C(=O)NCCN2CCOCC2)c1OC [Example 322] | 30 | 70
12 | CNC(=O)c1cnc(Nc2ccccn2)cc1Nc1cccc(-c2ncn(C)n2)c1OC [Example 374] | 6.98 | 8.36
13 | CNC(=O)c1cnc(Nc2cc(F)ccn2)cc1Nc1cccc(F)c1S(C)(=O)=O [Example 50] | 2000 | 1540
14 | CNC(=O)c1cnc(Nc2ccc(F)cn2)cc1Nc1cccc2c1OC(F)(F)O2 [Example 123] | 11100 | 8790
15 | CNC(=O)c1cnc(Nc2cc(C(=O)N(C)C)ccn2)cc1Nc1ccc(F)c(F)c1OC [Example 258] | 310 | 646
16 | CCc1cccc(Nc2cc(Nc3cc(F)cc(F)c3OC)c(C(=O)NC)cn2)n1 [Example 141] | 350 | 401
17 | CNC(=O)c1cnc(Nc2ccc(N3CCOCC3)cn2)cc1Nc1ccccc1OC [Example 216] | 120 | 152
18 | CNC(=O)c1cnc(Nc2cc(C)nc(C)n2)cc1Nc1cccnc1OC [Example 314] | 80 | 190
19 | CCc1ncccc1Nc1cc(Nc2cc(C)nc(C)n2)ncc1C(=O)NC [Example 402] | 330 | 250
20 | CNC(=O)c1cnc(Nc2cc(C)ccn2)cc1Nc1cc(F)cc(F)c1OC [Example 129] | 80 | 86.6
21 | CNC(=O)c1cnc(Nc2cc(C)ccn2)cc1Nc1ccccc1C(N)=O [Example 78] | 120 | 388
22 | CNC(=O)c1cnc(Nc2cccc(-n3ccccc3=O)n2)cc1Nc1cc(F)cc(F)c1OC [Example 164] | 2990 | 4410

Row | Compound | IC50 [1] [nM] | IC50 [2] [nM]
23 | CNC(=O)c1cnc(Nc2ccc(N3CCOCC3)cn2)cc1Nc1cc(S(C)(=O)=O)ccc1OC [Example 222] | 8390 | 8040
24 | CNC(=O)c1cnc(Nc2ccc(-n3cc(F)ccc3=O)cn2)cc1Nc1ccc(Cl)cc1OC [Example 106] | 180 | 439
25 | CNC(=O)c1cnc(Nc2ccc3ccccc3n2)cc1NC1CCC(F)(F)CC1 [Example 292] | 5600 | 4720
26 | CNC(=O)c1cnc(Nc2cc(C)c(F)cn2)cc1Nc1cccc(C(=O)NCC2CCC2)c1OC [Example 332] | 130 | 380
27 | CNC(=O)c1cnc(Nc2cc(C)c(F)cn2)cc1Nc1cccc(-c2ncn(C)n2)c1OC [Example 371] | 3.99 | 4.89
28 | CNC(=O)c1cnc(Nc2ccc(N3CCOCC3)cn2)cc1Nc1cccc2c1OCCO2 [Example 225] | 90 | 157
29 | CCc1ccc(Nc2cc(Nc3ccc(N4CCOCC4)cn3)ncc2C(=O)NC)cc1 [Example 213] | 1310 | 1870
30 | CNC(=O)c1cnc(Nc2ccc(F)cn2)cc1Nc1ccc(F)cc1OCF [Example 151] | 240 | 1140
31 | CNC(=O)c1cnc(Nc2cc(-n3ccccc3=O)ccn2)cc1Nc1ccc(F)cc1OC [Example 168] | 1220 | 1420
32 | CNC(=O)c1cnc(Nc2ccc(N3CCOCC3)cn2)cc1Nc1ccccc1F [Example 214] | 2010 | 2930
33 | CNC(=O)c1cnc(Nc2cc(C(F)(F)F)ccn2)cc1Nc1ccccc1S(C)(=O)=O [Example 14] | 110 | 135
34 | CNC(=O)c1cnc(Nc2ccn(-c3ccc(Cl)cc3)n2)cc1Nc1ccccc1S(C)(=O)=O [Example 446] | 180 | 150
35 | CNC(=O)c1cnc(Nc2ncccc2F)cc1Nc1ccccc1C(N)=O [Example 69] | 1310 | 1470
36 | CNC(=O)c1cnc(Nc2ccc(F)cn2)cc1Nc1ccc(C)cc1 [Example 193] | 3200 | 3670
37 | CNC(=O)c1cnc(Nc2cc(C)nc(C)n2)cc1Nc1cccc(-c2nnc(C)o2)c1OC [Example 361] | 20 | 60
38 | CNC(=O)c1cnc(Nc2ccc(C(=O)N3CCOCC3)cn2)cc1Nc1ccc(Cl)cc1OC [Example 263] | 3600 | 5060
39 | CNC(=O)c1cnc(Nc2ccc(F)cn2)cc1Nc1ccc(C(=O)N2CCOCC2)cc1OC [Example 241] | 500 | 902
40 | CNC(=O)c1cnc(Nc2cc(F)ccn2)cc1Nc1ccc(F)cc1S(C)(=O)=O [Example 51] | 200 | 270
41 | CNC(=O)c1cnc(Nc2ccc(F)cn2)cc1Nc1ccc(C(=O)N2CCCCC2)cc1C [Example 235] | 700 | 1420
42 | CNC(=O)c1cnc(Nc2ccc(F)cn2)cc1Nc1ccc(OC)cc1C(N)=O [Example 250] | 300 | 472
43 | CNC(=O)c1cnc(Nc2cc(C)c(C)nn2)cc1Nc1ccccc1S(C)(=O)=O [Example 415] | 210 | 320
44 | CNC(=O)c1ccnc(Nc2cc(Nc3cc(F)cc(F)c3OC)c(C(=O)NC)cn2)c1 [Example 273] | 160 | 223

Row | Compound | IC50 [1] [nM] | IC50 [2] [nM]
45 | CNC(=O)c1cnc(Nc2cc(C)c(F)cn2)cc1Nc1ccccc1S(C)(=O)=O [Example 432] | 20 | 30
46 | CNC(=O)c1cnc(Nc2ccc(F)cn2)cc1Nc1ccc(C(=O)N2CCCCC2)cc1OC [Example 239] | 230 | 293
47 | CNC(=O)c1cnc(Nc2cc(C)c(F)cn2)cc1Nc1cccc(-c2nnc(C)o2)c1OC [Example 359] | 10 | 20
48 | CNC(=O)c1cnc(Nc2cc(C)c(F)cn2)cc1Nc1cccc(C(N)=O)c1OC [Example 319] | 10 | 90
49 | CNC(=O)c1cnc(Nc2cc(C)c(F)cn2)cc1Nc1cccc(C(=O)NCC(F)(F)F)c1OC [Example 346] | 20 | 40
50 | CNC(=O)c1cnc(Nc2cc(C#N)ccn2)cc1Nc1cnccc1OC [Example 179] | 3250 | 2730
51 | CNC(=O)c1cnc(Nc2cc(C)c(F)cn2)cc1Nc1ccccc1S(C)(=O)=O [Example 60] | 40 | 60
52 | CNC(=O)c1cnc(Nc2cc(C)c(F)cn2)cc1Nc1cccc(C(=O)NC)c1OC [Example 320] | 30 | 50
53 | CNC(=O)c1cnc(Nc2cccc(OC)n2)cc1Nc1ccc(F)cc1OC [Example 154] | 560 | 784
54 | [2H]C([2H])([2H])NC(=O)c1cnc(Nc2cc(C)nc(C)n2)cc1Nc1cccc(-c2cnn(C)c2)c1OC [Example 397] | 8.77 | 60
55 | CNC(=O)c1cnc(Nc2ccc(F)cn2)cc1Nc1ccc(F)cc1 [Example 196] | 6970 | 4380
56 | CNC(=O)c1cnc(Nc2cc(OC)ccn2)cc1Nc1ccccc1S(C)(=O)=O [Example 15] | 80 | 108
57 | CNC(=O)c1cnc(Nc2ccn(C)n2)cc1Nc1cc(F)cc(F)c1OC [Example 407] | 90 | 90
58 | CNC(=O)c1cnc(Nc2cc(OC)ccn2)cc1Nc1ccc(F)cc1OC [Example 170] | 1720 | 1620
59 | CNC(=O)c1cnc(Nc2cc(C)nc(C)n2)cc1Nc1ccccc1S(C)(=O)=O [Example 300] | 130 | 280
60 | CNC(=O)c1cnc(Nc2ccc(F)cn2)cc1Nc1ccccc1OC(F)(F)F [Example 209] | 1310 | 1580
61 | CNC(=O)c1cnc(Nc2ncccc2Cl)cc1Nc1ccccc1C(N)=O [Example 90] | 8260 | 7200
62 | CNC(=O)c1cnc(Nc2cc(C)c(F)cn2)cc1Nc1cccc(C(=O)NCC(C)(C)C)c1OC [Example 340] | 120 | 220
63 | CCOc1cc(F)ccc1Nc1cc(Nc2ccc(N3CCOCC3)cn2)ncc1C(=O)NC [Example 232] | 2090 | 3040
64 | CNC(=O)c1cnc(Nc2cc(C(=O)N3CCOCC3)ccn2)cc1Nc1cc(F)cc(F)c1OC [Example 265] | 210 | 319
65 | CNC(=O)c1cnc(Nc2cc(C(=O)NCCOC)ccn2)cc1Nc1ccc(F)cc1OC [Example 271] | 820 | 1180
